One may read the Kd as the equilibrium constant for the complex coming apart.

The target of experiment [1] is T1, UBE2K (Homo sapiens, UniProt P61086).
T1 sequence (P61086 1-200): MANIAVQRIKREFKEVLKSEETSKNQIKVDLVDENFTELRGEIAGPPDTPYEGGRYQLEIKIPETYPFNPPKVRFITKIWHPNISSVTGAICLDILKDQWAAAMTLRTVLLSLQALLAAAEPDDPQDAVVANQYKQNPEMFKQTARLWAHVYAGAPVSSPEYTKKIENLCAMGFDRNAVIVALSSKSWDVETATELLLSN
Kind of experiment: UBE2K dissociation constant (Kd) by surface plasmon resonance (Biacore S200). The class given is binding. The following applies: SPR, steady state fitting; immobilized biotinylated UBE2K-Ub complex and UBE2K wild type. The procedure:
UBE2K Dissociation Constant (Kd) of E2-binder Compound 1
UBE2K Ligand binding to mono-Ub UBE2K and UBE2K was measured by Surface plasma resonance using a Biacore SPR S200 instrument. The proteins and ligands were prepared for experimental measurement as described below.
Avi tagged proteins were biotinylated and were immobilized on a Series S/Sensor Chip SA. Proteins were immobilized based on their molar weight as follows -Biotinylated Avi peptide (1000 μM), Biotinylated UBE2K-Ub Complex (12 μM) and Biotinylated UBE2K Wild Type (3 μM). Proteins were immobilized using a buffer comprised of 1X HBS-N Buffer+0.05% Tween 20 (250 mL). A stock of Compound 1 was prepared in affinity buffer comprised of 1% DMSO, 1×PBS-P+Buffer. Further dilution of stock were prepared in 0% DMSO, 1×PBS-P+Buffer or 3% DMSO, 1×PBS-P+Buffer and were used as running buffers. Compound 1 was prepared as 2 mM or 750 μM stocks in the buffers described above. Titration was performed using the Liquid handler/TECAN EVO (WALL-E) as follows. 1 or 2, 96 deep well plates (1.2 mL) were used for performing titrations-Aliquoted 3% DMSO, 1×PBS-P+buffer. 1:2 dilution was performed by WALL-E (250 μL+250 μL) for the rest of titrations till 3.12 μM. The titrations of Compound 1 was then transferred to 384 deep well plate in duplicates side-by-side (125 μL) each. […]
On the technique in general: SPR reads the build-up and loss of mass on a sensor chip optically.

For experiment [2], the target named is T2, BRD4 (Homo sapiens, UniProt O60885).
T2 construct: dose dependent degradation of BRD4 in HeLa cells; endogenous in cells; host or cells: HeLa
Description: Dose dependent degradation of BRD4 in HeLa cells (FIG. 2). In kind it is cell-based. An excerpt:
FIG. 2 illustrates the dose dependent degradation of BRD4 in HeLa cells using E2 binding PROTACS based on the present disclosure.
Dose Dependent Degradation of BRD4 in HeLa Cells
Compounds 6, 7, and 9 were then investigated for their ability to degrade BRD4.

Experiment [3] has as its system UBE2K-Ub. Kind of experiment: E2 binding capacity of PROTACs (FIG. 1). An excerpt:
UBE2K binder Compound 1 was used as a precursor to generate PROTAC Compounds 2, 6, 7, and 9. See experimental section above. Each of these PROTACs were first tested for their ability to bind the E2 enzyme UBE2K.

On to `O=C(NCc1cc2c3ccccc3nc(S)n2n1)c1ccccc1OC(F)(F)F` [Compound 1, N-((5-thioxo-5,6-dihydropyrazolo[1,5-c]quinazolin-2-yl)methyl)-2-(trifluoromethoxy)benzamide], for which, in experiment [1], the Kd came to 2110 nM.

With `Cc1sc2c(c1C)C(c1ccc(Cl)cc1)=N[C@@H](CC(=O)NCCOCCNC(=O)CSc1nc3ccccc3c3cc(CNC(=O)c4ccccc4OC(F)(F)F)nn13)c1nnc(C)n1-2` [Compound 7, (S)—N-((5-((2-((2-(2-(2-(4-(4-chlorophenyl)-2,3,9-trimethyl-6H-thieno[3,2-f][1,2,4]triazolo[4,3-a][1,4]diazepin-6-yl)acetamido)ethoxy)ethyl)amino)-2-oxoethyl)thio)pyrazolo[1,5-c]quinazolin-2-yl)methyl)-2-(trifluoromethoxy)benzamide], the “loss of BRD4” value in experiment [2] was “concentration dependent loss of BRD4”.

With `Cc1sc2c(c1C)C(c1ccc(Cl)cc1)=N[C@@H](CC(=O)NCCOCCOCCNC(=O)CSc1nc3ccccc3c3cc(CNC(=O)c4ccccc4OC(F)(F)F)nn13)c1nnc(C)n1-2` [Compound 9, (S)—N-((5-((14-(4-(4-chlorophenyl)-2,3,9-trimethyl-6H-thieno [3,2 f][1,2,4]triazolo [4,3-a][1,4]diazepin-6-yl)-2,13-dioxo-6,9-dioxa-3,12-diazatetradecyl)thio)pyrazolo[1,5-c]quinazolin-2-yl)methyl)-2-(trifluoromethoxy)benzamide], in experiment [2], the “loss of BRD4” value is reported as “concentration dependent loss of BRD4”.

On to `Cc1sc2c(c1C)C(c1ccc(Cl)cc1)=N[C@@H](CC(=O)NCCSc1nc3ccccc3c3cc(CNC(=O)c4ccccc4OC(F)(F)F)nn13)c1nnc(C)n1-2` [Compound 2, (S)—N-((5-((2-(2-(4-(4-chlorophenyl)-2,3,9-trimethyl-6H-thieno[3,2-f][1,2,4]triazolo[4,3-a][1,4]diazepin-6-yl)acetamido)ethyl)thio)pyrazolo[1,5-c]quinazolin-2-yl)methyl)-2-(trifluoromethoxy) benzamide], for which the “binding to UBE2K-Ub” value in experiment [3] is reported as “All compounds except for Compound 2 bind”.
